“Also recorded” adds a separate entry of the source.
Key:
[1] = test system: cIN organoids; assay: Passaging of cIN organoids with Trehalose; assay type: cell-based, human
Experimental: For passaging cINs, cells were trypsinized by 0.05% trypsin (Thermo Fisher, Waltham, Mass., USA) supplemented with or without 10 mM Trehalose (Sigma-Aldrich, Natick, Mass., USA). After 5 minutes' incubation at 37° C., the spheres were triturated to dissociate the spheres. An equal volume of DMEM media with 10% FBS (Hyclone, Marlborough, Mass., USA) was added to neutralize Trypsin. In addition, Turbo DNase (2 U/ml, Thermo Fisher, Waltham, Mass., USA) was added to help clear released DNAs from culture. The cells were then kept in the incubator for additional 15 min to remove any sticky DNA mass released during trituration. After incubation, the cells were centrifuged and resuspended by B27GB media with ROCK inhibitor. To exclude the dead cell cluster, the resuspended cells were filtered through a cell strainer cap (35 μm nylon mesh, Corning, N.Y., USA), and plated onto a PLO/FN-coated surface (Poly-L-Ornithine, 15 ug/ml, Sigma-Aldrich, Natick; Fibronectin, 10 ug/ml, Thermo Fisher, Waltham, Mass., USA) for the subsequent experiments.

[2] = test system: H9 cINs; assay: Cryopreservation of cINs with Trehalose in freezing media; assay type: cell-based, human
Experimental: For cryopreservation, the trypsinized cells were resuspended in freezing media (FBS with 10% DMSO) with or without 100 mM Trehalose and were frozen slowly overnight in an insulated container at −80° C. deep freezer. After 24 hours, the stocks were moved to liquid nitrogen storage until further experiments. Frozen stocks were thawed quickly in a 37° C. water bath, transferred to 15 ml conical tubes with 5 ml media, centrifuged and resuspended in B27GB media with ROCK inhibitor for plating and further experiments.

[3] = test system: MGE progenitors; assay: KI67+ proliferating MGE progenitors after chemical treatment (immunocytochemistry and cell counting); assay type: cell-based; settings: for proportion of proliferating MGE progenitors (in words): 3 week-old MGE progenitors treated for a week; for Percentage of proliferating cells (Average ± SEM, N): KI67+ cells, 3 week-old MGE progenitors treated 1 week, 20 μM FdU, 1% CultureOne, 10 mM DAPT, 2 μM PD0332991 or combination (CDP)
Experimental: For chemical treatment of cINs, the differentiated progenitors were seeded on PLO/FN-coated surface at 3 weeks after differentiation, and cultured in B27GB media without or with each chemical, 20 μM FdU (Sigma-Aldrich, Natick, Mass., USA), 1% CultureOne (C, Thermo Fisher, Waltham, Mass., USA), […] (D, Sigma-Aldrich, Natick, Mass., USA), and 2 μM PD0332991 (P, Sigma-Aldrich, Natick, Mass., US), or with combination of CultureOne, DAPT and PD0332991 (CDP) for the time period designated in each Figure.
Immunocytochemistry and cell counting. cINs on coverslips were fixed using 4% paraformaldehyde (PFA, Electron Microscopy Sciences, Hatfield, Pa.) for 15 min, washed with PBS and used for staining. The spheres at different differentiation stages were fixed by 4% PFA for 15 min, rinsed with PBS, cryo-protected in the 30% sucrose (Thermo Fisher, Waltham, Mass., USA) overnight at 4° C., mounted on the chuck using the O.C.T. Compound (Thermo Fisher, Waltham, Mass., USA) and cryosectioned at 40 μm using a Leica CM1850 cryostat (Leica Biosystem, Buffalo Grove, Ill., USA). Fixed cells or sphere sections were incubated with blocking/permeablization buffer (PBS with 10% normal serum and 0.1% Triton X-100) for 10 min. The samples were then incubated in primary antibodies in antibody dilution buffer (PBS containing 2% normal serum) overnight at 4° C. After washing with PBS, cells were incubated with fluorescently labeled secondary antibodies and DAPI (Invitrogen, Waltham, Mass., USA)) in antibody dilution buffer for 1 h at room temperature. Following the PBS wash, the samples were mounted with Fluoromount-G (SouthernBiotech, Birmingham, Ala., USA).
For cell counting, multi point function in Image J software (Version 1.51 p, NIH, Bethesda, Md., USA) was used. Percentage of positive cells for each marker was calculated by dividing by DAPI-stained total nuclei number from at least 3 separate biological replicates. For each staining, a total of at least 500 cells were counted for each group.

| SMILES | survival rate during passaging ([1]; 6 weeks after differentiation, 10 mM Trehalose in trypsin) | increase in survival rate during passaging ([1]; older organoids, after six months' differentiation) | survival of cryopreserved cINs after freeze-thaw ([2]; 100 mM Trehalose in freezing media) | cIN phenotypes after freeze-thaw ([2]; SOX6, GAD, β-TUBLIN three weeks after thawing) | viability during cryopreservation ([2]; optimized condition, compared to the cINs passaged without cryopreservation) [%] | proportion of proliferating MGE progenitors (in words) [3] | Percentage of proliferating cells (Average ± SEM, N) [3] |
| --- | --- | --- | --- | --- | --- | --- | --- |
| OC[C@H]1O[C@H](O[C@H]2O[C@H](CO)[C@@H](O)[C@H](O)[C@H]2O)[C@H](O)[C@@H](O)[C@@H]1O [Trehalose] | significantly increased the survival rate | much more pronounced | significantly increased survival | without affecting their phenotypes | 65.27±8.97 |  |  |
| CC(=O)c1c(C)c2cnc(Nc3ccc(N4CCNCC4)cn3)nc2n(C2CCCC2)c1=O [PD0332991] |  |  |  |  |  | significantly reduced the proportion of proliferating progenitors; also recorded: effective in regulating MGE cell cycle exit | 5.160 ± 1.042, 4% |
| C[C@H](NC(=O)Cc1cc(F)cc(F)c1)C(=O)N[C@H](C(=O)OC(C)(C)C)c1ccccc1 [DAPT] |  |  |  |  |  | significantly reduced the proportion of proliferating progenitors; also recorded: worked well to control cell cycle exit of MGE cells | 8.835 ± 1.618, 4% |
| O=c1[nH]c(=O)n([C@H]2C[C@H](O)[C@@H](CO)O2)cc1F [FdU, 5-fluoro-2′-deoxyuridine] |  |  |  |  |  | did not influence the proportion of proliferating MGE progenitors; also recorded: not effective in reducing immature proliferating cell numbers | 31.719 ± 1.486, 4% |

From patent US20210340502A1, “Generation of Post-Mitotic Migratory Cortical Interneurons” (The McLean Hospital Corporation, priority 2018, published 2021)
